Measured values published in patent EP0863136B1, “Derivatives of azetidine and pyrrolidine” (Akzo Nobel N.V., priority 1997, dated 1998).

Columns and labels:
human 5-HT2A receptors = molecular target: T1, human 5-HT2A receptors (Homo sapiens, UniProt P28223); test: Binding test, displacement of [3H]-ketanserin, cloned human receptors expressed in 3T3 cells; conditions: cloned human receptor in 3T3 cells; [3H]-ketanserin displacement; read-out: Binding pKi 5HT2A (converted)
T1 construct: expressed in transfected cells; host or cells: 3T3 cells
Protocol: (§1) The tests are carried out using cloned human receptors expressed in 3T3 cells according to the protocols described in Stam et al "Genomic organization, coding sequence and functional expression of human 5-HT2 and 5-HT1A receptor genes" - European Journal of Pharmacology - Molecular Pharmacology Section 227: 153-162 (1993) and Stam et al "Genomic organisation and functional expression of the gene encoding the human serotonin 5-HT2C receptor" - European Journal of Pharmacology - Molecular Pharmacology Section 269: 339-348 (1994).

5HT2C receptors = molecular target: T2, 5HT2C receptors (Rattus norvegicus, UniProt P08909); test: Penile erection test; type: in vivo; conditions: rats
T2 construct: from tissue; host or cells: whole animal (rat), in vivo
T2 sequence (P08909 33-460): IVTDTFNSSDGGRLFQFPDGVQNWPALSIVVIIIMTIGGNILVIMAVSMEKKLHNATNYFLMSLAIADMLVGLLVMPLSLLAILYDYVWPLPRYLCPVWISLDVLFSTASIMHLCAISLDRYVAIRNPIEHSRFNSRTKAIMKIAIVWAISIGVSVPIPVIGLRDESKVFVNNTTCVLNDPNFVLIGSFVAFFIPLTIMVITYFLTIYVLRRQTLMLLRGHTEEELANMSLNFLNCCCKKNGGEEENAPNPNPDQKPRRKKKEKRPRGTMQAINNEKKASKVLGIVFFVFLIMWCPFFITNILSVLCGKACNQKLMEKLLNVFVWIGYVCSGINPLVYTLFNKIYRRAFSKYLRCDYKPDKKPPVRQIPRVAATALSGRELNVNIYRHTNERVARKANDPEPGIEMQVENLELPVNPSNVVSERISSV
Description: This test, carried out according to the protocol of Berendsen et al ["In volvement of 5-HT1C receptors in drug-induced penile erections in rats" - Psychopharmacology 101: 57-61(1990)] enables the potential in vivo activity at 5HT2C receptors to be assessed.

DRL-72 test = type: in vivo; conditions: rats, operant performance
Description: This test, carried out according to the protocol of Andrews et al ["Effects of imipramine and mirtazapine on operant performance in rats" - Drug Development Research 32: 58-66 (1994)], gives an indication of potential antidepressant-like activity.

human 5-HT2C = molecular target: T3, human 5-HT2C (Homo sapiens, UniProt P28335); test: Binding test, displacement of [3H]-mesulergine, cloned human receptors expressed in 3T3 cells; conditions: cloned human receptor in 3T3 cells; [3H]-mesulergine displacement; read-out: Binding pKi 5HT2C (converted)
T3 construct: expressed in transfected cells; host or cells: 3T3 cells
T3 sequence (P28335 33-458): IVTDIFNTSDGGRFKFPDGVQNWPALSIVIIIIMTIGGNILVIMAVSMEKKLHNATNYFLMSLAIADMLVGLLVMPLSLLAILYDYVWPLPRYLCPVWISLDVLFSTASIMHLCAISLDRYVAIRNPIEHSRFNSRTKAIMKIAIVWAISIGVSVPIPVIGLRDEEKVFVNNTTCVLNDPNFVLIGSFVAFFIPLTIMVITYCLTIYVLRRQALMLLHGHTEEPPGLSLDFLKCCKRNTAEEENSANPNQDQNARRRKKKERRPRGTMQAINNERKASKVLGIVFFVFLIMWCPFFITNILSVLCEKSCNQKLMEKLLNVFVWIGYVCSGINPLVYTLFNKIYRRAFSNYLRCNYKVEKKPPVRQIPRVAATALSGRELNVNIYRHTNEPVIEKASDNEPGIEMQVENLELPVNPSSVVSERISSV
Protocol: as §1

T1 sequence (P28223 whole entry): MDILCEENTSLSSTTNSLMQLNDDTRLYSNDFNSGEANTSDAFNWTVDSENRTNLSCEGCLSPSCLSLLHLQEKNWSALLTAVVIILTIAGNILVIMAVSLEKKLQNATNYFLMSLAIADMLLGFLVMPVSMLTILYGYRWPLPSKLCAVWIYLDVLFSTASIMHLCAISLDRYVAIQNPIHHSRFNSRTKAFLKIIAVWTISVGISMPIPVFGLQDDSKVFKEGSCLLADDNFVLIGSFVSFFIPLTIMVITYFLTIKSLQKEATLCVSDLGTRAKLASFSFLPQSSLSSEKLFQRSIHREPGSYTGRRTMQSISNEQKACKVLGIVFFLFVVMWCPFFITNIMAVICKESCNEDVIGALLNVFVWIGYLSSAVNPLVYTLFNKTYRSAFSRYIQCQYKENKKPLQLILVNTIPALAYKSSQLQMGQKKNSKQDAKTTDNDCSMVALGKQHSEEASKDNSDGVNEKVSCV

| SMILES | Ki (human 5-HT2A receptors) | Erection of the penis (MED, mg.kg-1) (5HT2C receptors) | Increase in pellets earned in DRL-72 (MED, mg.kg-1) (DRL-72 test) | Ki (human 5-HT2C) |
| --- | --- | --- | --- | --- |
| COc1ccc2c(c1OC1CNC1)CCC2.Cl [Compound 5d, 3-[(2,3-Dihydro-5-methoxy-1H-inden-4-yl)oxy]-azetidine hydrochloride] | 0.398 µM | 1 mg/kg | 10 mg/kg | 0.0316 µM |
| COc1ccc2c(c1OC1CCNC1)CCC2.Cl (racemic) [Compound 10b, (rac)-3-[(2,3-Dihydro-5-methoxy-1H-inden-4-yl)oxy] pyrrolidine hydrochloride] |  | 1 mg/kg | 10 mg/kg | 0.0251 µM |
| COc1ccc2c(c1O[C@H]1CCNC1)CCC2.Cl [Compound 9a, (S)-(+)-3-[(2,3-Dihydro-5-methoxy-1H-inden-4-yl)oxy]-pyrrolidine hydrochloride] |  | 0.46 mg/kg | 3 mg/kg | 0.01 µM |
